Columns and labels:
full-length human LSD1 = full-length human LSD1 (Homo sapiens (Human), UniProt O60341); assay: In vitro enzyme inhibition assay LSD-1 (TR-FRET); format: biochemical; details: H3K4me1-biotin peptide
Description: This assay determines the ability of a test compound to inhibit LSD1 demethylase activity.
The enzymatic assay of LSD1 activity is based on Time Resolved-Fluorescence Resonance Energy Transfer (TR-FRET) detection.
Plates were read by EnVision Multilabel Reader in TR-FRET mode (excitation at 320 nm, emission at 615 nm and 665 nm) after 1 hour incubation at room temperature.
The ability of the compounds disclosed herein to inhibit LSD1 activity was quantified and the respective IC50 value was determined.

THP-1 (AML) cells = assay: LSD1 CD11b cellular assay (flow cytometry); format: cell-based; details: Homo sapiens, THP-1, 96 h; CD11b expressing cells, 4 days incubation
Description: To analyze LSD1 inhibitor efficacy in cells, a CD11b flow cytometry assay was performed. LSD1 inhibition induces CD11b expression in THP-1 (AML) cells which can be measured by flow cytometry. […] LSD1 test compounds were serially diluted in DMSO. The dilutions were added to each well accordingly to a final concentration of 0.2% DMSO. The cells were incubated at 37 degrees Celsius in 5% CO2 for 4 days. 250 μL of each well was transferred to a well in a 96 well round bottom plate. The plate was centrifuged at 1200 rpm at 4 degrees Celsius in a Beckman Coulter Alegra 6KR centrifuge for 5 minutes. The media was removed leaving the cells at the bottom of the wells. The cells were washed in 100 μL cold HBSS (Hank's Balanced Salt Solution) plus 2% BSA (Bovine Serum Albumin) solution and centrifuged at 1200 rpm at 4 degrees Celsius for 5 minutes. The wash was removed. […] The cells were centrifuged and washed two times in 100 μL HBSS plus 2% BSA. After the final spin the cells were resuspended in 100 μL HBSS plus 2% BSA containing 1 ug/mL DAPI (4′,6-diamidino-2-phenylindole). The cells were then analyzed by flow cytometry in a BD FACSAria machine. Cells were analyzed for CD11b expression. The percent of CD11b expressing cells for each inhibitor concentration was used to determine an IC50 curve for each compound analyzed.

Kasumi-1 = Kasumi-1 AML cell line proliferation assay (Cell-MTS assay); format: cell-based; details: Homo sapiens, 168 hours incubation
Excerpt: Colorimetric cellular assay to assess the ability of LSD-1 small molecule inhibitors to effect the proliferation of the established AML cancer cell line Kasumi-1.
This Cell-MTS assay is a 7-day plate based colorimetric assay which quantifies the amount of newly generated NADH in the presence and absence of test compound. These NADH levels are used as a proxy for the quantification of cancer cell proliferation.
The established cancer cell line Kasumi-1 with a verified p53 mutation were purchased from American Type Culture Collection (ATCC) and routinely passaged according to ATCC published protocols. For routine assay these cells were seeded at a density of 20,000 cells per 96-well. 24 hours after plating, cells received an 11 point dilution of test compound with final concentration ranges from 100 μM to 2.0 nM. Cells are incubated in the presence of compound for 168 hours at 37° C., 5% CO2. At the end of this compound incubation period, 80 μl of media is removed and 20 μL of CellTiter 96® AQueous Non-Radioactive Cell Proliferation Assay solution (Promega) is added. The cells are incubated until the OD490 is >0.6. IC50 values are calculated using the IDBS XLfit software package and include background subtracted OD490 values and normalization to DMSO controls.
Table 5 provides the Kasumi-1 cellular IC50 values of various substituted heterocyclic compounds disclosed herein.

Compound `COCCn1c(-c2ccc(C)cc2)c(-c2ccc(C#N)cc2)nc(N2CCC(N)CC2)c1=O` [Example 36, 4-[6-(4-amino-piperidin-1-yl)-4-(2-methoxy-ethyl)-5-oxo-3-p-tolyl-4,5-dihydro-pyrazin-2-yl]-benzonitrile] has an IC50 (full-length human LSD1) of less than 100 nM, an IC50 (THP-1 (AML) cells) of less than 100 nM and an IC50 (Kasumi-1) of no more than 100 nM.

`CCc1ccc(-c2c(-c3ccc(C#N)cc3)nc(NC[C@H]3CCNC3)c(=O)n2C)cc1` [Example 28, 4-[3-(4-ethylphenyl)-4-methyl-5-oxo-6-{[(3S)-pyrrolidin-3-ylmethyl]amino}-4,5-dihydropyrazin-2-yl]benzonitrile] was tested, and the IC50 (full-length human LSD1) was less than 100 nM, the IC50 (THP-1 (AML) cells) was 100 to 1000 nM and the IC50 (Kasumi-1) was no more than 100 nM.

`COc1ccc(-c2c(-c3ccc(C#N)cc3)cc(N3CCC(N)CC3)c(=O)n2C)cc1F` [Example 83, 4-[5-(4-aminopiperidin-1-yl)-2-(3-fluoro-4-methoxyphenyl)-1-methyl-6-oxopyridin-3-yl]benzonitrile] showed an IC50 (full-length human LSD1) of less than 100 nM, an IC50 (THP-1 (AML) cells) of less than 100 nM and an IC50 (Kasumi-1) of no more than 100 nM.

In the case of `COc1ccc(-c2c(-c3ccc(C#N)c(F)c3)cc(N3CCC(N)CC3)c(=O)n2C)cc1F` [Example 84, 4-[5-(4-aminopiperidin-1-yl)-2-(3-fluoro-4-methoxyphenyl)-1-methyl-6-oxopyridin-3-yl]-2-fluorobenzonitrile], the IC50 (full-length human LSD1) is reported as less than 100 nM, the IC50 (THP-1 (AML) cells) is reported as less than 100 nM and the IC50 (Kasumi-1) is reported as no more than 100 nM.

`Cc1ccc(-c2c(-c3ccc(C#N)cc3)cc(N3CCC(N)CC3)c(=O)n2C)cc1` [Example 75, 4-[5-(4-aminopiperidin-1-yl)-1-methyl-2-(4-methylphenyl)-6-oxopyridin-3-yl]benzonitrile] was tested, and the IC50 (full-length human LSD1) was less than 100 nM, the IC50 (THP-1 (AML) cells) was less than 100 nM and the IC50 (Kasumi-1) was no more than 100 nM.

`Cc1ccc(-c2c(-c3ccc(C#N)cc3)nc(N3CCC4CNCC4CC3)c(=O)n2C)cc1` (centres unmarked) [Example 25, 4-(6-{decahydropyrrolo[3,4-d]azepin-6-yl}-4-methyl-3-(4-methylphenyl)-5-oxo-4,5-dihydropyrazin-2-yl)benzonitrile] was tested, and the IC50 (full-length human LSD1) was less than 100 nM and the IC50 (THP-1 (AML) cells) was less than 100 nM.

In the case of `COc1ccc(-c2c(-c3ccc(C#N)nc3)nc(NC[C@H]3CCNC3)c(=O)n2C)cc1` [Example 54, 5-{3-(4-methoxy-phenyl)-4-methyl-5-oxo-6-[((3S)-pyrrolidin-3-ylmethyl)-amino]-4,5-dihydro-pyrazin-2-yl}-pyridine-2-carbonitrile], the IC50 (full-length human LSD1) is reported as less than 100 nM and the IC50 (THP-1 (AML) cells) is reported as less than 100 nM.

Compound `CNC1CCN(c2cc(-c3ccc(C#N)cc3)c(-c3ccc(N(C)C)nc3)n(C)c2=O)CC1` [Example 92, 4-{2-[6-(dimethylamino)(3-pyridyl)]-1-methyl-5-[4-(methylamino)piperidyl]-6-oxo-3-hydropyridyl}benzenecarbonitrile] has an IC50 (full-length human LSD1) of less than 100 nM and an IC50 (THP-1 (AML) cells) of less than 100 nM.

Compound `Cc1ccc(-c2c(-c3ccc(C#N)cc3)nc(N3CCCC(N)C3)c(=O)n2C)cc1` (centres unmarked) [Example 22, 4-[6-(3-aminopiperidin-1-yl)-4-methyl-3-(4-methylphenyl)-5-oxo-4,5-dihydropyrazin-2-yl]benzonitrile] has an IC50 (full-length human LSD1) of less than 100 nM and an IC50 (THP-1 (AML) cells) of less than 100 nM.

`COCCn1c(-c2ccc(C)cc2)c(-c2ccc(C#N)c(F)c2)nc(N2CCC(N)CC2)c1=O` [Example 41, 4-[6-(4-amino-piperidin-1-yl)-4-(2-methoxy-ethyl)-5-oxo-3-p-tolyl-4,5-dihydro-pyrazin-2-yl]-2-fluoro-benzonitrile] gave an IC50 (full-length human LSD1) of less than 100 nM and an IC50 (THP-1 (AML) cells) of less than 100 nM.

For `CNC1CCN(c2cc(-c3ccc(C#N)cc3)c(-c3ccc(OC)cc3)n(C)c2=O)CC1` [Example 78, 4-{2-(4-methoxyphenyl)-1-methyl-5-[4-(methylamino)piperidyl]-6-oxo-3-hydropyridyl}benzenecarbonitrile], the IC50 (full-length human LSD1) was less than 100 nM and the IC50 (THP-1 (AML) cells) was less than 100 nM.

Compound `CCc1ccc(-c2c(-c3ccc(C#N)c(F)c3)nc(NC[C@H]3CCNC3)c(=O)n2C)cc1` [Example 57, 4-{3-(4-ethyl-phenyl)-4-methyl-5-oxo-6-[((3S)-pyrrolidin-3-ylmethyl)-amino]-4,5-dihydro-pyrazin-2-yl}-2-fluoro-benzonitrile] has an IC50 (full-length human LSD1) of less than 100 nM and an IC50 (THP-1 (AML) cells) of less than 100 nM.

For `Cn1c(-c2ccc(C3CC3)cc2)c(-c2ccc(C#N)nc2)nc(N2CCC(N)CC2)c1=O` [Example 53, 5-[6-(4-amino-piperidin-1-yl)-3-(4-cyclopropyl-phenyl)-4-methyl-5-oxo-4,5-dihydro-pyrazin-2-yl]-pyridine-2-carbonitrile], the IC50 (full-length human LSD1) was less than 100 nM and the IC50 (THP-1 (AML) cells) was less than 100 nM.

In the case of `COc1ccc(-c2c(-c3ccc(C#N)cc3)cc(N3CCC(N)CC3)c(=O)n2CC2CC2)cc1` [Example 81, 4-[5-(4-aminopiperidin-1-yl)-1-(cyclopropylmethyl)-2-(4-methoxyphenyl)-6-oxopyridin-3-yl]benzonitrile], the IC50 (full-length human LSD1) is reported as less than 100 nM and the IC50 (THP-1 (AML) cells) is reported as less than 100 nM.

In the case of `COc1ccc(-c2c(-c3ccc(C#N)c(F)c3)nc(N3CCC(N)CC3)c(=O)n2CCC(N)=O)cc1` [Example 89, 3-[3-(4-aminopiperidyl)-5-(4-cyano-3-fluorophenyl)-6-(4-methoxyphenyl)-2-oxohydropyrazinyl]propanamide], the IC50 (full-length human LSD1) is reported as less than 100 nM and the IC50 (THP-1 (AML) cells) is reported as less than 100 nM.

In the case of `CCc1ccc(-c2c(-c3ccc(C#N)cc3)nc(NC[C@@H]3CCNC3)c(=O)n2C)cc1` [Example 29, 4-[3-(4-ethylphenyl)-4-methyl-5-oxo-6-{[(3R)-pyrrolidin-3-ylmethyl]amino}-4,5-dihydropyrazin-2-yl]benzonitrile], the IC50 (full-length human LSD1) is reported as less than 100 nM and the IC50 (THP-1 (AML) cells) is reported as 100 to 1000 nM.

Work on `CCOc1ccc(-c2c(-c3ccc(C#N)c(F)c3)nc(NC[C@H]3CCNC3)c(=O)n2C)cc1` [Example 62, 4-{3-(4-ethoxy-phenyl)-4-methyl-5-oxo-6-[((3S)-pyrrolidin-3-ylmethyl)-amino]-4,5-dihydro-pyrazin-2-yl}-2-fluoro-benzonitrile] yielded an IC50 (full-length human LSD1) of less than 100 nM and an IC50 (THP-1 (AML) cells) of less than 100 nM.

With `N#Cc1ccc(-c2cn(Cc3ccccc3)c(=O)c(N3CCC(N)CC3)n2)cc1` [Example 1, 4-[6-(4-aminopiperidin-1-yl)-4-benzyl-5-oxo-4,5-dihydropyrazin-2-yl]benzonitrile] the IC50 (full-length human LSD1) was less than 100 nM and the IC50 (THP-1 (AML) cells) was 100 to 1000 nM.

With `C[C@@H](c1ccccc1)n1cc(-c2ccc(C#N)cc2)nc(N2CCC(N)CC2)c1=O` [Example 13, 4-[6-(4-aminopiperidin-1-yl)-5-oxo-4-[(1S)-1-phenylethyl]-4,5-dihydropyrazin-2-yl]benzonitrile] the IC50 (full-length human LSD1) was less than 100 nM and the IC50 (THP-1 (AML) cells) was 1000 to 10000 nM.

For `Cc1ccc(Cn2cc(-c3ccc(C#N)cc3)nc(N3CCC(N)CC3)c2=O)cc1` [Example 2, 4-[6-(4-aminopiperidin-1-yl)-4-[(4-methylphenyl)methyl]-5-oxo-4,5-dihydropyrazin-2-yl]benzonitrile], the IC50 (full-length human LSD1) was less than 100 nM and the IC50 (THP-1 (AML) cells) was 100 to 1000 nM.

For `CCn1c(-c2ccc(C)cc2)c(-c2ccc(C#N)cc2)nc(N2CCC(N)CC2)c1=O` [Example 26, 4-[6-(4-aminopiperidin-1-yl)-4-ethyl-3-(4-methylphenyl)-5-oxo-4,5-dihydropyrazin-2-yl]benzonitrile], the IC50 (full-length human LSD1) was less than 100 nM and the IC50 (THP-1 (AML) cells) was less than 100 nM.

Work on `CCn1c(-c2ccc(OC)cc2)c(-c2ccc(C#N)cc2)cc(N2CCC(N)CC2)c1=O` [Example 82, 4-[5-(4-aminopiperidin-1-yl)-1-ethyl-2-(4-methoxyphenyl)-6-oxopyridin-3-yl]benzonitrile] yielded an IC50 (full-length human LSD1) of less than 100 nM and an IC50 (THP-1 (AML) cells) of less than 100 nM.

`COc1cccc(Cn2cc(-c3ccc(C#N)cc3)nc(N3CCC(N)CC3)c2=O)c1` [Example 10, 4-[6-(4-aminopiperidin-1-yl)-4-[(3-methoxyphenyl)methyl]-5-oxo-4,5-dihydropyrazin-2-yl]benzonitrile] was tested, and the IC50 (full-length human LSD1) was less than 100 nM and the IC50 (THP-1 (AML) cells) was 100 to 1000 nM.

Work on `COc1ccc(-c2c(-c3ccc(C#N)nc3)cc(N3CCC(N)CC3)c(=O)n2C)cc1` [Example 68, 5-(5-(4-aminopiperidin-1-yl)-2-(4-methoxyphenyl)-1-methyl-6-oxo-1,6-dihydropyridin-3-yl)picolinonitrile] yielded an IC50 (full-length human LSD1) of less than 100 nM and an IC50 (THP-1 (AML) cells) of 100 to 1000 nM.

Reference: patent US11028066B2, “Inhibitors of lysine specific demethylase-1” (CELGENE QUANTICEL RESEARCH, INC., priority 2014, dated 2021)
